Patent US20230390223A1, “ADMINISTRATION OF […] COMPOSITIONS FOR TREATING NERVOUS SYSTEM DISORDERS” (PaxMedica, Inc., priority 2020, published 2023)
Where “and” joins values, the source holds several entries; their conditions need not be identical. Equal entries are not always repeated. Where two headings read alike, the source gives them in different places.

How the values were obtained:
[1] = test system: B6.129P2-Fmr1tm1Cgr/J transgenic (TG) mice; assay: Step through passive avoidance test (learning and memory); type: in vivo
Description: The Passive Avoidance task is useful for evaluating the effect of novel chemical entities on learning and memory as well as studying the mechanisms involved in rodent models of CNS disorders. In this test, the test chamber is divided into a lighted compartment and a dark compartment, with a gate between the two. The test animals explored both compartments on the first day. The next day, they are given a mild foot shock in the dark compartment and they will learn to associate the dark compartment with the foot shock. In order to test their learning and memory, the mice are then placed back in the lighted compartment. Passive avoidance behavior of rodents is defined as the suppression of their innate preference for the dark compartment. Mice with normal learning and memory will avoid entering the dark chamber. Learning and memory from the previous day is measured by recording the latency to cross through the gate between the two compartments. See, J. David Sweatt, Chapter 4: Rodent Behavioral Learning and Memory Models, Editor: J. David Sweatt. Mechanisms of Memory (Second Edition), Academic Press, 2010, Pages 76-103, ISBN 9780123749512.
This study used a SmartCage™ system, which is an automated non-invasive rodent behavioral monitoring system which enables biomedical researchers to conduct a variety of neurobehavioral assays through consistent and accurate monitoring of rodent home cage activity and behavior. See, Xie et al, 2012.
• 1. N=6 mice per group. • 2. All behavioral testing included a group of untreated wild type (WT) controls. • 3. Dosing for the various groups were as follows: • a. […] Group 2: IP saline, […], administered weekly to animals beginning at 9 weeks of age and continuing for four weeks (i.e. given at Age Weeks 9, 10, 11 and 12). • c. […] Behavioral tests for all groups (Groups 1-5) began the following day after the last day of IN dosing (Weeks 13-14 of age). • 2. Blood samples (for PK testing) were collected from all mice at the end of Week 12 of age, just prior to starting the behavioral tests in Week 13 of age. • 3. Brain tissue (for biochemistry testing) was harvested from all mice upon sacrifice at the conclusion of all behavioral testing at the end of Week 13-14 of age.
(§1) Male B6.129P2-Fmr1tm1Cgr/J TG (TG) mice were purchased from Jackson Laboratories, Bar Harbor, Maine. These mice were of approximately 8 (±1) weeks of age. […] Mice accommodated to the research facility for the remainder of the week. Dosing began on the following Monday. Body weights of all mice were recorded for health monitoring purposes.
Dosing was carried out over the course of 28 days as instructed by the study Sponsor. […]

[2] = test system: B6.129P2-Fmr1tm1Cgr/J transgenic (TG) mice; assay: Light/dark preference test (LDT), anxiety-like behavior, SmartCage; type: in vivo
Description: The light/dark preference test (LDT) is one of the most widely used tests in pharmacology to measure unconditioned anxiety-like behavior in mice. The test is based on the natural aversion of mice to brightly illuminated areas and on their spontaneous exploratory behavior in response to a novel environment and light. See, Takao, K., et al., Light/dark Transition Test for Mice. J. Vis. Exp. (1), e104, doi:10.3791/104 (2006).
This study used a SmartCage™ system, which is an automated non-invasive rodent behavioral monitoring system which enables biomedical researchers to conduct a variety of neurobehavioral assays through consistent and accurate monitoring of rodent home cage activity and behavior. See, Xie X. S. et al. (2012) Rodent Behavioral Assessment in the Home Cage Using the SmartCage™™ System. In: Chen J., Xu X M., Xu Z., Zhang J. (eds) Animal Models of Acute Neurological Injuries II. Springer Protocols Handbooks. Humana Press, Totowa, NJ.
• 1. N=6 mice per group. • 2. All behavioral testing included a group of untreated wild type controls. • 3. Dosing for the various groups were as follows: • a. […] Group 2: IP saline, […], administered weekly to animals beginning at 9 weeks of age and continuing for four weeks (i.e. given at Age Weeks 9, 10, 11 and 12). • c. […] Behavioral tests for all groups (Groups 1-5) began the following day after the last day of IN dosing (Weeks 13-14 of age). • 2. Blood samples (PK testing) were collected from all mice at the end of 12 Weeks of age, just prior to starting the behavioral tests in Week 13. • 3. Brain tissue (for biochemistry testing) was harvested from all mice upon sacrifice at the conclusion of all behavioral testing at the end of 13-14 Weeks of age.
as §1, with “TG” for “TG (TG)”, “8(±1)” for “8 (±1)”
Dosing was carried out over the course of 28 days as instructed by the study sponsor. • 1. Prior to the beginning of the light/dark test, a dark box (red transparent enclosure with an opening for the mouse to enter) is placed in the SmartCage™. • 2. An individual mouse is placed in the open/non-dark box side (“Light Zone”), with its head facing away from the dark box. • 3. The mouse is then allowed to freely explore the SmartCage™ and enter the dark box “Dark Zone” at its own discretion over a 10-minute span. • 4. Anxiety-like behavior is assessed based on the SmartCage™ monitoring of time spent in the Light Zone, the number of Light Zone entries, and % Time Spent in the Light Zone. • 5. […] Wildtype Control data (collected separately prior to the beginning […] of the B6.129P2-Fmr1tm1Cgr/J TG mice) was added to the final data analysis to serve as a comparison for naive, male C57BL/6 mice.
No food or water is withheld and only natural stressors such as light are used. Four similarly calibrated SmartCages™ were used to record four mice simultaneously (example cage shown below). All Light/Dark tests were completed in one day.
Light/Dark Test Setup—Dark Box placed within the transparent homecage; homecage placed within the SmartCage™ monitoring system.

[3] = Determination of suramin in plasma and brain tissue after IP or IN administration; type: in vivo, mice; conditions: for Kp: male, Fmr1-knockout B6.129P2-Fmr1tm1Cgr/J, mouse, brain/plasma, other: intranasal, 100 mg/mL, read-out: Average Brain Tissue to Plasma Partitioning Ratio
Description: For the study, male Fmr1-knockout B6.129P2-Fmr1tm1Cgr/J TG mice were purchased from Jackson Laboratories, Bar Harbor, Maine. These mice were of approximately 8 weeks of age. […] The absence of FMRP in these mice induces an over-activation of RAC1, a protein of the Rho GTPase subfamily that plays a critical role in dendritic morphology and synaptic function. These B6.129P2-Fmr1tm1Cgr/J TG mice, provide an animal model for cognitive disabilities and neurodevelopmental disorders.
Mice were accommodated to the research facility for approximately a week. Body weights of all mice were recorded for health monitoring purposes.
The remaining ingredients, except the cyclodextrin are added with mixing. The cyclodextrin is then added with mixing until dissolved. The resultant solution is allowed to sit for 2 hours before using.
Blood samples were collected from all mice at the end of 12 weeks of age. Brain tissue was harvested from all mice upon sacrifice 13-14 weeks of age. Standard sample preparation and analytical techniques were used to obtain the data.

[4] = test system: B6.129P2-Fmr1tm1Cgr/J transgenic (TG) mice; assay: Locomotor activity test, SmartCage ~24 h recording; type: in vivo; conditions: for Active time: versus WT control group
mouse model of epilepsy = conditions: cited from earlier work
[5] = 5-minute test, suramin IP 20 mg/kg weekly for four weeks
[6] = suramin IP 20 mg/kg weekly for four weeks
[7] = 10-minute test, suramin IN weekly (100 mg/mL, one spray per nostril, 4 weeks)
[8] = 10-minute test, group regimens: A-804598 IP 30 mg/kg/day, tangeretin IP 10 mg/kg/day, emodin+piperine PO 20 mg/kg each twice per day

## Cc1ccc(C(=O)Nc2ccc(S(=O)(=O)O)c3cc(S(=O)(=O)O)cc(S(=O)(=O)O)c23)cc1NC(=O)c1cccc(NC(=O)Nc2cccc(C(=O)Nc3cc(C(=O)Nc4ccc(S(=O)(=O)O)c5cc(S(=O)(=O)O)cc(S(=O)(=O)O)c45)ccc3C)c2)c1 [suramin, 1,3,5-Naphthalenetrisulfonic acid, 8,8′-[carbonylbis[imino-3,1-phenylenecarbonylimino(4-methyl-3,1-phenylene)carbonylimino]]bis-]
[1]; [5]
  percentage of time spent in the light zone on the test day: approximately 50%
  total light zone time on the test day: lower total time
[1]; [6]
  Dark Zone entry latency, Test Day (24 h post-foot shock): shortest latency for entering the dark compartment
[2]; [7]
  percentage of time spent in the Light Zone: higher percentage of time spent in the Light Zone
  total time spent in the light zone: ~6.5 min
[2]; all IN suramin groups (daily, every other day, weekly; 100 mg/mL, one spray per nostril, 28 days)
  Dark Zone entry latency: 60 to 65 s
[2]; [6]
  Dark Zone entry latency: 30 to 40 s
[3]; Group 1: IP 20 mg/kg weekly for four weeks, blood at end of 12 weeks of age, 20 mg/kg
  Average Plasma Concentration: 18733 ng/ml and 14.440 μM
[3]; Group 3: IN formulation 100 mg/mL, one spray per nostril, one time per day for 28 days
  Average Plasma Concentration: 1637 ng/ml and 1.262 μM
[3]; Group 4: IN formulation 100 mg/mL, one spray per nostril, every other day for 28 days
  Average Plasma Concentration: 1578 ng/ml and 1.217 μM
[3]; Group 5: IN formulation 100 mg/mL, one spray per nostril, one time every week for 4 weeks
  Average Plasma Concentration: 278.7 ng/ml and 0.215 μM
[3]; one spray per nostril, Group 3: IN formulation 100 mg/mL, one spray per nostril, one time per day for 28 days
  Kp: 0.069
[3]; one spray per nostril, Group 4: IN formulation 100 mg/mL, one spray per nostril, every other day for 28 days
  Kp: 0.089
[3]; one spray per nostril, Group 5: IN formulation 100 mg/mL, one spray per nostril, one time every week for 4 weeks
  Kp: 0.235
[4]; all IN Suramin groups (Daily, Weekly, Every 2 Days)
  Active time: greater activity compared to the WT control group
[4]; suramin IN every 2 days, versus WT control
  Rearing count: comparable to the WT control group

## C[C@H](N/C(=N/C#N)Nc1cccc2ncccc12)c1ccccc1 [Formulation A-804598, N-Cyano-N″-[(1S)-1-phenylethyl]-N′-5-quinolinyl-guanidine]
[2]; 10-minute test, each group at its regimen, compared to WT mice
  number of Light Zone entries: significantly lower number of light zone entries

## COc1ccc(-c2cc(=O)c3c(OC)c(OC)c(OC)c(OC)c3o2)cc1 [Tangeretin, 5,6,7,8-tetramethoxy-2-(4-methoxyphenyl)-4H-1-benzopyran-4-one]
[1]; test day, tangeretin IP 10 mg/kg/day, emodin+piperine PO 20 mg/kg each twice per day, other groups at their regimens
  total number of Dark Zone Entries: one
[2]; [8]
  percentage of time spent in the Light Zone: higher percentage of time spent in the Light Zone
  total time spent in the light zone: ~6.5 min
[4]; A-804598 IP 30 mg/kg/day, tangeretin IP 10 mg/kg/day
  Active time: greater activity compared to the WT control group

## O=C(NCC1(N2CCN(c3ccccc3)CC2)CCOCC1)c1cccnc1Sc1ccccc1 [JNJ-47965567, 2-(Phenylthio)-N-[[tetrahydro-4-(4-phenyl-1-piperazinyl)-2H-pyran-4-yl]methyl]-3-pyridinecarboxamide]
Mouse model of epilepsy
  effect on epileptic seizures: suppress epileptic seizures
